Patent publication US6500610B1, “Methods for identifying compounds for inhibiting of neoplastic lesions, and pharmaceutical compositions containing such compounds” (Cell Pathways, INC, priority 1997, dated 2002)
Like-named read-outs stand apart in the source and are kept apart here.

Experiments:
[1] = target: T1, cyclooxygenase (Type 1), COX-I (Ovis aries, UniProt P05979); assay: COX inhibition assay, purified cyclooxygenase; conditions: for COX-I inhibition: FIG. 5
T1 sequence (P05979 25-600): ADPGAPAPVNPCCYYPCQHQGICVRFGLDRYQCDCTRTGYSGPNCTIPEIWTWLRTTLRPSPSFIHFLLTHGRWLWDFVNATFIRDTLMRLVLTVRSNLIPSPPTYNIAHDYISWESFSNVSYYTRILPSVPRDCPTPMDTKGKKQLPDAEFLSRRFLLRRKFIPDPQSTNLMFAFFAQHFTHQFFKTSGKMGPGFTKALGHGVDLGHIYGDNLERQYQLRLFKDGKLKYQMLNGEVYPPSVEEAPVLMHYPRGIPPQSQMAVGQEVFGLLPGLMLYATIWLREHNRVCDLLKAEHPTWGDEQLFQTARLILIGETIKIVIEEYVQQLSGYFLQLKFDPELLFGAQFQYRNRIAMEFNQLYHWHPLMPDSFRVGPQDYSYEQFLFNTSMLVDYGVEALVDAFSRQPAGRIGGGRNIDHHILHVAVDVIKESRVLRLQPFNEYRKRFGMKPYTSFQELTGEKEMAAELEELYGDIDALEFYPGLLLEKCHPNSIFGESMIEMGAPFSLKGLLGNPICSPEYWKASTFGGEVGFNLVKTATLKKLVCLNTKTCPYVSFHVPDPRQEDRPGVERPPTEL

[2] = test system: HT-29 cells; assay: cGMP and cAMP levels in HT-29 cells by radioimmunoassay; type: cell-based, human; conditions: HT-29 cells treated 30 minutes
[3] = target: T2, cGMP binding sites of the GST-cGB-PDE5 Protein (Homo sapiens, UniProt O76074); assay: cGMP binding assay with GST-cGB-PDE5 fusion protein; conditions: 3H-cGMP 2 μM
T2 construct: made in house; host or cells: E. coli BL21 (DE3)

[4] = target: T3, Peak A (PDE5) from SW480 cells (Homo sapiens, UniProt O76074); assay: cGMP hydrolysis inhibition, PDE peak A from SW480; type: biochemical
T3 construct: To isolate the novel phosphodiesterase from SW480, approximately four hundred million SW480 cells were grown to confluence; endogenous in cells; host or cells: SW480 colon cancer cells; DEAE-Trisacryl M fraction (peak A)

[5] = test system: cGMP PDE from human colon HT-29 cultured tumor cells; assay: cGMP PDE inhibition assay; type: biochemical
[6] = target: T4, novel cGMP-specific PDE (Peak B) from SW480 cells (Homo sapiens, UniProt O00408); assay: cGMP hydrolysis inhibition, novel PDE peak B (Section IA) from SW480; type: biochemical
T4 construct: IC50 Peak B (μM)

[7] = test system: premalignant lesions in mouse mammary gland organ culture; assay: Mammary gland organ culture model; type: cell-based
Description: Test compounds identified by the above methods can be tested for antineoplastic activity by their ability to inhibit the incidence of pre-neoplastic lesions in a mammary gland organ culture system. This mouse mammary gland organ culture technique has been successfully used by other investigators to study the effects of known antineoplastic agents such as certain NSAIDs, retinoids, tamoxifen, selenium, and certain natural products, and is useful for validation of the screening method of the present invention.
For example, female BALB/c mice can be treated with a combination of estradiol and progesterone daily, in order to prime the glands to be responsive to hormones in vitro. The animals are sacrificed, and thoracic mammary glands are excised aseptically and incubated for ten days in growth media supplemented with insulin, prolactin, hydrocortisone, and aldosterone. DMBA (7,12 dimethylbenz(a)anthracene) is added to medium to induce the formation of premalignant lesions. Fully developed glands are then deprived of prolactin, hydrocortisone, and aldosterone, resulting in the regression of the glands but not the pre-malignant lesions.
The test compound is dissolved in DMSO and added to the culture media for the duration of the culture period. At the end of the culture period, the glands are fixed in 10% formalin, stained with alum carmine, and mounted on glass slides. The incidence of forming mammary lesions is the ratio of the glands with mammary lesions to […]. The incidence of mammary lesions in test compound treated glands is compared with that of the untreated glands.
The extent of the area occupied by the mammary lesions can be quantitated by projecting an image of the gland onto a digitation pad. The area covered by the gland is traced on the pad and considered as 100% of the area. The space covered by each of the non-regressed structures is also outlined on the digitization pad and quantitated by the computer.
Mammary gland organ culture experiment were performed as previously described (Mehta and Moon, Cancer Research, 46:5832-5835, 1986). […]

[8] = test system: HT-29 cells; assay: Growth inhibition, viable cell count after trypan blue staining; type: cell-based, human; conditions: HT-29, 120 μM
Procedure: Growth inhibition (15A top) was measured by counting viable cells after trypan blue staining. Apoptosis (15B bottom) was measured by morphological determination following staining with acridine orange and ethidium bromide as described previously (Duke and Cohen, in: Current Protocols in Immunology, 3.17.1-3.17.16, New York, John Wiley and Sons, 1992). […] All data were collected from the same experiment.

[9] = test system: HT-29 cells; assay: Apoptosis and necrosis by morphology (acridine orange, ethidium bromide) in HT-29; type: cell-based, human
Description: Apoptosis occurs naturally during normal tissue turnover and during embryonic development of organs and limbs. Apoptosis also is induced by cytotoxic T-lymphocytes and natural killer cells, by ionizing radiation and by certain chemotherapeutic drugs. Inappropriate regulation of apoptosis is thought to play an important role in many pathological conditions including cancer, AIDS, or Alzheimer's disease, etc. Compounds can be screened for induction of apoptosis using cultures of tumor cells maintained under conditions as described above. Treatment of cells with test compounds involves either pre- or post-confluent cultures and treatment for two to seven days at various concentrations. Apoptotic cells are measured in both the attached and “floating” compartments of the cultures. […]
Apoptotic and necrotic cell death was determined previously (Duke and Cohen, In: Current Protocols in Immunology, 3.17.1 -3.17.16, New York, John Wiley and Sons, 1992). […]
The apoptosis inducing activity for a series of phosphodiesterase inhibitors was determined. […] Apoptosis and necrosis were determined morphologically after acridine orange and ethidium bromide labeling in accordance with the assay described, supra.

[10] = test system: HT-29 cells; assay: Growth inhibition, SRB assay, HT-29; type: cell-based, human

T4 sequence (O00408 2-941): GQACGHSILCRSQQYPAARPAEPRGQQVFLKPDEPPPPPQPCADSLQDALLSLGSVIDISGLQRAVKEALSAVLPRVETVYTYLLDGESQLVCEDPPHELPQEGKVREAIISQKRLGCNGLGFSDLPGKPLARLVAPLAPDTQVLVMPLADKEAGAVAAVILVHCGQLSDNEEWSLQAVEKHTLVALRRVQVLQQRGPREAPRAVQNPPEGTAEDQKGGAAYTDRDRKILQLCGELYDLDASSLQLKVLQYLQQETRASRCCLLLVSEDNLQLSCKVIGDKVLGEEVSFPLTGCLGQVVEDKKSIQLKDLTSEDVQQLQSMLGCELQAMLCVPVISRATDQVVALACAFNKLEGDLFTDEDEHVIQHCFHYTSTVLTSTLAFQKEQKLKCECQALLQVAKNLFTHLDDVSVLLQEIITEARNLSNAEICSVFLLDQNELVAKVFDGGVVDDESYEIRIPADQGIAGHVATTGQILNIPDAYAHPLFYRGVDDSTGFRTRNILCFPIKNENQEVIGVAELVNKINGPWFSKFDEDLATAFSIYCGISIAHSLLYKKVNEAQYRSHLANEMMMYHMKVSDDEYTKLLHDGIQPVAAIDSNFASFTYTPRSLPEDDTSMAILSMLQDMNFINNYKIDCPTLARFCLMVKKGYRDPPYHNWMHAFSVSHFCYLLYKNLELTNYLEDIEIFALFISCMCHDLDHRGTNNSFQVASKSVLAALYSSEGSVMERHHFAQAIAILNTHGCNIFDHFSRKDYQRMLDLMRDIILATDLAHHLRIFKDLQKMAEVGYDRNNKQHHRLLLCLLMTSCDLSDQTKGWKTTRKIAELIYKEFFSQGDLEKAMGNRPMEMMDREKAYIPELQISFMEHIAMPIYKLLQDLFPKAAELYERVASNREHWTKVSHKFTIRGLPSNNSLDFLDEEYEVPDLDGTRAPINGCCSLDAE

SMILES: Clc1cccc(Nc2nnc(-c3ccccc3)c3ccccc23)c1 [MY5445, 1-(3-chloroanilino)-4-phenyphthalazine, reference compound]
- COX % Inhibition at 100 μM [1]: 94%

SMILES: COc1ccc(C2CNC(=O)C2)cc1OC1CCCC1 (stereo not shown) [Rolipram]
- levels of cAMP [2]: increased cAMP

SMILES: CCCOc1ccccc1-c1nc2nn[nH]c2c(=O)[nH]1 [Zaprinast]
- competition with cGMP in binding of GST-cGB-PDE5 [3]: None of the PDE5 inhibitors showed any competition with cGMP

SMILES: COc1cc(/C=C2/C(C)=C(CC(=O)NCc3ccccc3)c3cc(F)ccc32)cc(OC)c1OC [Compound E, (Z)-5-Fluoro-2-methyl-1-(3,4,5-trimethoxybenzylidene)-3-indenylacetamide, N-benzyl]
- COX-I inhibition [1]: neither test compound B and E significantly inhibit COX-I
- competitive (with cGMP) binding to PDE 5 (peak A) [4]: does competitively (with cGMP) bind to PDE 5
- cGMP PDE % Inhibition at 10 μM ([5]; 10 µM): 75%
- competitive (with cGMP) binding to PDE peak B [6]: competitively (with cGMP) binds to PDE peak B
- competition with cGMP in binding of GST-cGB-PDE5 [3]: None of the PDE5 inhibitors showed any competition with cGMP

SMILES: CSc1ccc(/C=C2/C(C)=C(CC(=O)O)c3cc(F)ccc32)cc1 [Sulindac sulfide]
- inhibition of formation of premalignant lesions [7]: inactive
- increase of levels of cGMP [2]: greater than 50%
- levels of cAMP [2]: unaffected
- cGMP PDE % Inhibition at 10 μM [5]: 97%
- growth inhibition, viable cell count time course [8]: capable of inhibiting tumor cell growth
- apoptosis, time course ([9]; HT-29, 120 μM): accompanied by an increase in apoptosis
- apoptotic and necrotic cell death ([9]; HT-29, treated six days): capable of causing apoptotic cell death without inducing necrosis
- competition with cGMP in binding of GST-cGB-PDE5 [3]: None of the PDE5 inhibitors showed any competition with cGMP

SMILES: CC1=C(CC(=O)O)c2cc(F)ccc2/C1=C\c1ccc([S+](C)[O-])cc1 (stereo not shown) [sulindac]
- inhibition of formation of premalignant lesions [7]: effectively inhibit the formation of premalignant lesions

SMILES: CC1=C(CC(=O)O)c2cc(F)ccc2/C1=C\c1ccc(Cl)cc1 [Compound C, (Z)-5-Fluoro-2-methyl-1-(p-chlorobenzylidene)-3-acetic acid]
- Growth % Inhibition at 100 μM [10]: 80%
- cGMP PDE % Inhibition at 10 μM [5]: <25%

SMILES: COc1cc(C=C2C(C)=C(CC(=O)O)c3cc(F)ccc32)cc(OC)c1OC [Compound B, (Z)-5-Fluoro-2-methyl-1-(3,4,5-trimethoxybenzylidene)-3-acetic acid]
- COX-I inhibition [1]: neither test compound B and E significantly inhibit COX-I
- cGMP PDE % Inhibition at 10 μM [5]: <25%
- competition with cGMP in binding of GST-cGB-PDE5 [3]: None of the PDE5 inhibitors showed any competition with cGMP

SMILES: CCCc1nn(C)c2c(=O)[nH]c(-c3cc(S(=O)(=O)N4CCN(C)CC4)ccc3OCC)nc12 [Sildenafil, reference compound]
- inhibition of activity of peak A [4]: inhibited activity of peak A

SMILES: CC(=O)NC(CSC12CC(=O)OC1(C)/C(=C/c1ccc(S(C)(=O)=O)cc1)c1ccc(F)cc12)C(=O)O (racemic) [D, rac-(E)-1-(butan-1′,4′-olido)-[3′,4′:1,2]-6-fluoro-2-methyl-3-(p-methylsulfonylbenzylidene)-1S-indanyl-N-acetylcysteine]
- COX % Inhibition at 100 μM [1]: <25%
- Growth % Inhibition at 100 μM [10]: 78%
